Measurements taken from patent publication US10626144B2, “Peptide derivatives and uses thereof” (Nosopharm, priority 2014, dated 2020).
Read-outs that look alike come from different tables or passages of the source. Square brackets hold non-standard residues; d marks the D form. Peptide text beside a SMILES is read from it. * marks the point of attachment. ξ: configuration not given here. Phe(3-F) = N[C@@H](Cc1cccc(F)c1)C(=O)O; Phe(3-Me) = Cc1cccc(C[C@H](N)C(=O)O)c1; Dab(3S-OH) = NC[C@H](O)[C@H](N)C(=O)O; Lys(5ξ-OH) = NCC(O)CC[C@H](N)C(=O)O; ΔZArg = N=C(N)NCC/C=C(\N)C(=O)O; dOrn = NCCC[C@@H](N)C(=O)O; NH(CH2)4NH2 = NCCCCN*

Legend:
[1] = target: N-type calcium channels (Cav2.2) (Rattus norvegicus (Rat), UniProt Q02294); assay: biochemical; format: binding; conditions: read-out: IC50 Cav2.2
[2] = Tolerability in mice, single i.v. bolus dose; conditions: female, CD-1, mouse, in vivo, iv
[3] = tested on: Pseudomonas aeruginosa ATCC 27853; assay: MIC, broth microdilution (CLSI), reference strain; conditions: CAMHB
[4] = tested on: Escherichia coli ATCC 25922; assay: MIC, broth microdilution (CLSI), reference strain; conditions: CAMHB
[5] = tested on: Staphylococcus aureus ATCC 13709; assay: MIC, broth microdilution (CLSI), reference strain; conditions: CAMHB
[6] = tested on: Klebsiella pneumoniae ATCC 43816; assay: MIC, broth microdilution (CLSI), reference strain; conditions: CAMHB
[7] = tested on: Acinetobacter baumannii ATCC 19606; assay: MIC, broth microdilution (CLSI), reference strain; conditions: CAMHB
[8] = tested on: Ec #1 (NCTC13476); assay: MIC / resistance profile, multidrug-resistant strain; conditions: multidrug-resistant E. coli NCTC13476
[9] = tested on: Ec #3 (EGB957); assay: as above; conditions: multidrug-resistant E. coli EGB957
[10] = tested on: Ec #4 (GUE); assay: as above; conditions: multidrug-resistant E. coli GUE
[11] = tested on: Ec #5 (DSM22315); assay: as above; conditions: multidrug-resistant E. coli DSM22315
[12] = tested on: Kp #1 (NCTC13439); assay: as above; conditions: multidrug-resistant K. pneumoniae NCTC13439
[13] = tested on: Kp #2 (DUB); assay: as above; conditions: multidrug-resistant K. pneumoniae DUB
[14] = tested on: Kp #3 (A33504); assay: as above; conditions: multidrug-resistant K. pneumoniae A33504
[15] = tested on: Kp #4 (ATCC BAA1904); assay: as above; conditions: multidrug-resistant K. pneumoniae ATCC BAA1904
[16] = tested on: Kp #5 (6560); assay: as above; conditions: multidrug-resistant K. pneumoniae 6560
[17] = tested on: Klebsiella pneumoniae ATCC BAA2470; assay: Murine peritonitis/sepsis model with analog 24.66 (Example 12); conditions: for Alive animals at 24 hrs: N=8
Description: Female CD-1 mice (weight, 25 g; Charles River) were used throughout the study. Six groups of 8 mice were inoculated by intraperitoneal (i.p.) injection of 0.5 ml Klebsiella pneumoniae ATCC BAA2470 suspension containing 10^8.1 CFU/ml in 0.9% sterile saline and 5% (wt/vol) mucin. One hour after bacterial challenge on day 0, mice were treated by intravenous (i.v.) route with the antibiotic solutions formulated in 0.9% sterile saline.
One group was administered with single bolus dose of tigecycline at 20 mg/kg. One group received no treatment.

[18] = tested on: Ec #2 (MIN); assay: MIC / resistance profile, multidrug-resistant strain; conditions: multidrug-resistant E. coli MIN
[19] = tested on: Klebsiella pneumoniae ATCC BAA2470; assay: Murine peritonitis/sepsis model with Odilorhabdin A (Example 13); format: in vivo, CD-1 mice
[20] = class symbol, rat cerebral cortex, [125I]ω-conotoxin GVIA 0.001 nM, 30 minutes at room temperature

Compound | Pa: MIC Pseudomonas aeruginosa ATCC 27853 [3] | Ec: MIC Escherichia coli ATCC 25922 [4] | Sa: MIC Staphylococcus aureus ATCC 13709 [5] | Ab: MIC Acinetobacter baumannii ATCC 19606 [7] | MIC Ec#1 [8] | MIC Ec#3 [9] | MIC Ec#4 [10] | MIC Ec#5 [11] | IC50 [1, 20] | MIC Ec#2 [18] | further results
C[C@H](NC(=O)[C@@H](NC(=O)[C@@H](N)CCCCN)[C@@H](O)CN)C(=O)NCC(=O)N[C@H](CCCN)C(=O)N1CCC[C@H]1C(=O)N[C@@H](Cc1cnc[nH]1)C(=O)N[C@@H](CCCCN)C(=O)N/C(=C\CCNC(=N)N)C(=O)O [24.66] (H-K[Dab(3S-OH)]AG[dOrn]PHK[ΔZArg]-OH) | − (>32 μg/mL) | + (≤32 μg/mL) | + (≤32 μg/mL) | − (>32 μg/mL) | + (≤32 μg/mL) | + (≤32 μg/mL) | + (≤32 μg/mL) | + (≤32 μg/mL) |  |  | IC50 [1]: > 300 nM; LD50 at 5 days [2]: 494 mg/kg; Kp: MIC Klebsiella pneumoniae ATCC 43816 [6]: ++ (≤8 μg/mL); MIC Kp#1 [12]: ++ (≤8 μg/mL); MIC Kp#2 [13]: ++ (≤8 μg/mL); MIC Kp#3 [14]: ++ (≤8 μg/mL); MIC Kp#4 [15]: ++ (≤8 μg/mL); MIC Kp #5 [16]: ++ (≤8 μg/mL); Alive animals at 24 hrs ([17]; 6 mg/kg i.v. single bolus): 0; Alive animals at 24 hrs ([17]; 12.5 mg/kg i.v. single bolus): 2; Alive animals at 24 hrs ([17]; 25 mg/kg i.v. single bolus): 5; Alive animals at 24 hrs ([17]; 50 mg/kg i.v. single bolus): 7; ED50 ([17]; single i.v. bolus one hour after i.p. challenge, 10^8.1 CFU/ml, observed 24 hours): 20.4 mg/kg
C[C@H](NC(=O)[C@@H](NC(=O)[C@@H](N)CCCCN)[C@@H](O)CN)C(=O)NCC(=O)N[C@H](CCCN)C(=O)N1CCC[C@H]1C(=O)N[C@@H](Cc1cccc(F)c1)C(=O)N[C@@H](CCCCN)C(=O)N/C(=C\CCNC(=N)N)C(=O)O [24.152] (H-K[Dab(3S-OH)]AG[dOrn]P[Phe(3-F)]K[ΔZArg]-OH) | − (>32 μg/mL) | ++ (≤8 μg/mL) | ++ (≤8 μg/mL) | − (>32 μg/mL) | + (≤32 μg/mL) | + (≤32 μg/mL) | + (≤32 μg/mL) | ++ (≤8 μg/mL) | > 300 nM | + (≤32 μg/mL) | 
Cc1cccc(C[C@H](NC(=O)[C@@H]2CCCN2C(=O)[C@@H](CCCN)NC(=O)CNC(=O)[C@H](C)NC(=O)[C@@H](NC(=O)[C@@H](N)CCCCN)[C@@H](O)CN)C(=O)N[C@@H](CCCCN)C(=O)N/C(=C\CCNC(=N)N)C(=O)O)c1 [24.153] (H-K[Dab(3S-OH)]AG[dOrn]P[Phe(3-Me)]K[ΔZArg]-OH) | − (>32 μg/mL) | ++ (≤8 μg/mL) | ++ (≤8 μg/mL) | − (>32 μg/mL) | ++ (≤8 μg/mL) | ++ (≤8 μg/mL) | + (≤32 μg/mL) | ++ (≤8 μg/mL) | > 300 nM | ++ (≤8 μg/mL) | 
COc1ccc(C[C@H](NC(=O)[C@@H]2CCCN2C(=O)[C@@H](CCCN)NC(=O)CNC(=O)[C@H](C)NC(=O)[C@@H](NC(=O)[C@@H](N)CCCCN)[C@@H](O)CN)C(=O)N[C@@H](CCCCN)C(=O)N/C(=C\CCNC(=N)N)C(=O)O)cc1 [24.154] (H-K[Dab(3S-OH)]AG[dOrn]PY(Me)K[ΔZArg]-OH) | − (>32 μg/mL) | ++ (≤8 μg/mL) | ++ (≤8 μg/mL) | − (>32 μg/mL) | ++ (≤8 μg/mL) | ++ (≤8 μg/mL) | ++ (≤8 μg/mL) | ++ (≤8 μg/mL) | > 300 nM | ++ (≤8 μg/mL) | 
N=C(N)NCC/C=C(\NC(=O)[C@H](CCC(O)CN)NC(=O)[C@H](Cc1c[nH]cn1)NC(=O)[C@@H]1CCCN1C(=O)[C@@H](CCCN)NC(=O)CNC(=O)[C@@H](NC(=O)[C@@H](NC(=O)[C@@H](N)CCCCN)[C@@H](O)CN)[C@@H](O)CN)C(=O)N[C@@H](CCC(O)CN)C(=O)NCCCCN (stereo partly drawn) [Odilorhabdin A] (H-K[Dab(3S-OH)][Dab(3S-OH)]G[dOrn]PH[Lys(5ξ-OH)][ΔZArg][Lys(5ξ-OH)]-{NH(CH2)4NH2}; N-terminus and C-terminus assumed) |  |  |  |  |  |  |  |  |  |  | IC50 ([1]; value in brackets, rat cerebral cortex, [125I]ω-conotoxin GVIA 0.001 nM): 25 nM; Alive animals at 24 hrs ([19]; 5 mg/kg i.v. single bolus, n=6): 0; Alive animals at 24 hrs ([19]; 10 mg/kg i.v. single bolus, n=8): 2; Alive animals at 24 hrs ([19]; 15 mg/kg i.v. single bolus, n=7): 4; Alive animals at 24 hrs ([19]; 20 mg/kg i.v. single bolus, n=8): 6; ED50 ([19]; single i.v. bolus one hour after i.p. challenge, 10^7.7 CFU/ml, observed 24 hours): 13.9 mg/kg
CN(C)c1cc(NC(=O)CNC(C)(C)C)c(O)c2c1C[C@H]1C[C@H]3[C@H](N(C)C)C(O)=C(C(N)=O)C(=O)[C@@]3(O)C(O)=C1C2=O [Tigecycline, tigecycline, reference compound] |  |  |  |  |  |  |  |  |  |  | Alive animals at 24 hrs ([19]; 15 mg/kg i.v. single bolus, n=8 (tigecycline)): 8; Alive animals at 24 hrs ([17]; 20 mg/kg i.v. single bolus): 8
